Results as given in publication PMC5225454, “A Comprehensive Evaluation of the Activity and Selectivity Profile of Ligands for RGD-binding Integrins” (Scientific Reports, 2017).
Several values for one entry are separate records, joined by “and”; a condition that tells them apart may be missing. Identical values can stand only once. Like-named read-outs stand apart in the source and are kept apart here. Positions of bridges follow the written chain, without caps; N, C: chain ends. Non-standard residues stand in square brackets, D forms with d. Residues, ends and D or L forms follow the SMILES beside them. Groups on a side chain read outwards from the residue. *: point of attachment. X1 = O=C(COCC(=O)*)NCCOCCOCCOCCOCCOCCNC(=O)CO/N=C/c1ccc(F)cc1; X2 = NC(=O)COCC(=O)NCCOCCOCCOCCN*; dPhg = N[C@@H](C(=O)O)c1ccccc1; AEEA = NCCOCCOCC(=O)O; Mpa = O=C(O)CCS

What was measured:
human αvβ8-Integrin = target: T1, human αvβ8-Integrin (Homo sapiens, UniProt P06756+P26012); assay: ELISA-like solid-phase binding assay, soluble integrin αvβ8 vs coated LAP (TGF-β); settings: referenced to internal standard
T1 construct: purchased R&D
T1 sequence (P06756 31-992 limits assumed): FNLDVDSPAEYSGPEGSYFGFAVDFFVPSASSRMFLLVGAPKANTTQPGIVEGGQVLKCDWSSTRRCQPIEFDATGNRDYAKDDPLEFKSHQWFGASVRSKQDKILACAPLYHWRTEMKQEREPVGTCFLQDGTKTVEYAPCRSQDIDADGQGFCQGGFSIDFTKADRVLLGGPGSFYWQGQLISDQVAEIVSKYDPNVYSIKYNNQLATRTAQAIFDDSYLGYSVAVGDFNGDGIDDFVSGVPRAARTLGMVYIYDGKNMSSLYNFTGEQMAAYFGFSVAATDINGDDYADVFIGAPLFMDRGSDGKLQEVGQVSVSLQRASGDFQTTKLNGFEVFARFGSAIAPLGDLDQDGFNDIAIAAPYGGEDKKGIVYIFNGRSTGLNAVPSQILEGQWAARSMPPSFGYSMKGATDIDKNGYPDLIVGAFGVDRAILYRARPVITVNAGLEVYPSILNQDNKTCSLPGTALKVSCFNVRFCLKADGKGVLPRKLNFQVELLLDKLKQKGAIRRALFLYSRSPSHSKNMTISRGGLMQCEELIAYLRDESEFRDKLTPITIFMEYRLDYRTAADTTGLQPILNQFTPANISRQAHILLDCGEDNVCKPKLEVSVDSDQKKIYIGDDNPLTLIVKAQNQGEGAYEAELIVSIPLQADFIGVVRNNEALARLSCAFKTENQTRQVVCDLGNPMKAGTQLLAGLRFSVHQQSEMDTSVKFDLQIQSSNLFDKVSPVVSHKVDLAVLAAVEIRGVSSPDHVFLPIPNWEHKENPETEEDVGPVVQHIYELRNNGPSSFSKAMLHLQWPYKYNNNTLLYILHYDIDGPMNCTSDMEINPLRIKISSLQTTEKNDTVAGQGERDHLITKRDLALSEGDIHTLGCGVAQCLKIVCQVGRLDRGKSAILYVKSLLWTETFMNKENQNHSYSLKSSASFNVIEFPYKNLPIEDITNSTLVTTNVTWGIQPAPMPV
T1 sequence (P26012 43-684 limits assumed): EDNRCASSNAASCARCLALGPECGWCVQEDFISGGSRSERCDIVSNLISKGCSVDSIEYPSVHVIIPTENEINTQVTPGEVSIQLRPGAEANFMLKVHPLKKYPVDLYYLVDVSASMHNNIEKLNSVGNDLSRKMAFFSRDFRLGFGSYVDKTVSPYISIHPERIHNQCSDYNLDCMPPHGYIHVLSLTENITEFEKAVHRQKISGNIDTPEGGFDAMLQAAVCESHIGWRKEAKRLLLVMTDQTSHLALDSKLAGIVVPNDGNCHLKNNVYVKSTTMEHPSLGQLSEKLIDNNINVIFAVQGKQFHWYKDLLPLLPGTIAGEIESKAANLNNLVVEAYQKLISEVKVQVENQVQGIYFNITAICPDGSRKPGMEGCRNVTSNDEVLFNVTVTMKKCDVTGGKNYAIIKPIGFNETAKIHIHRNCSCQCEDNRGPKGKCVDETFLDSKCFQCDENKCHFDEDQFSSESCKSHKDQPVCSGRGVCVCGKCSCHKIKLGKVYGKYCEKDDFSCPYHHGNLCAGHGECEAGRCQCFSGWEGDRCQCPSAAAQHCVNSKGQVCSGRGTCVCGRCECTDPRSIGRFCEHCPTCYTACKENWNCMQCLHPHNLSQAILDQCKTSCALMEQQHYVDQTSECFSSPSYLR

[1] = target: T2, human platelet integrin αIIbβ3 (Homo sapiens, UniProt P05106+P08514); assay: ELISA-like solid-phase binding assay, soluble integrin αIIbβ3 vs coated fibrinogen; settings: referenced to internal standard
T2 construct: purchased VWR

human αvβ3-integrin = target: T3, human αvβ3-integrin (Homo sapiens, UniProt P05106+P06756); assay: ELISA-like solid-phase binding assay, soluble integrin αvβ3 vs coated vitronectin; settings: for IC50: coated vitronectin, soluble integrin, referenced to internal standard
T3 construct: purchased R&D
T3 sequence (P06756 31-992 limits assumed): as the sequence (P06756 31-992 limits assumed) above
T3 sequence (P05106 27-718 limits assumed): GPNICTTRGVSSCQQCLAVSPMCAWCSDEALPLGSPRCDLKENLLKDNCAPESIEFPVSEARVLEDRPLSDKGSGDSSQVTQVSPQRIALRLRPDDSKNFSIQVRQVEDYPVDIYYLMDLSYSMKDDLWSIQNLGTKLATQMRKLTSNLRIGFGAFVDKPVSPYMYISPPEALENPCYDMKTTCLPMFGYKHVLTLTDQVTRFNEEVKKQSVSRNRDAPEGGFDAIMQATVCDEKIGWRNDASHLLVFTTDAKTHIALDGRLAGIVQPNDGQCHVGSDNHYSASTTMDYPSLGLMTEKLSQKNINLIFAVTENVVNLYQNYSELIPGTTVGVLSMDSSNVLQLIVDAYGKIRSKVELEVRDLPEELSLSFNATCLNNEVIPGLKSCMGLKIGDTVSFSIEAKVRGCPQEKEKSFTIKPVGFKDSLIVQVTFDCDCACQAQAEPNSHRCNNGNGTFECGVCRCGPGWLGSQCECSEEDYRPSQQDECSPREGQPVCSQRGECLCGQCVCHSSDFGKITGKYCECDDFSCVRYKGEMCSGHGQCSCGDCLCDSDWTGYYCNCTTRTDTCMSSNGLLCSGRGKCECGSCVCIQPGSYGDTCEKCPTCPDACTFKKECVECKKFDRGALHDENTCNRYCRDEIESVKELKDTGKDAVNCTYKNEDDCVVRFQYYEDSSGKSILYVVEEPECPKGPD

human αvβ5-integrin = target: T4, human αvβ5-integrin (Homo sapiens, UniProt P06756+P18084); assay: ELISA-like solid-phase binding assay, soluble integrin αvβ5 vs coated vitronectin; settings: referenced to internal standard
T4 construct: purchased Millipore

α5β1 integrin [2] = target: T5, α5β1 integrin (Homo sapiens, UniProt P05556+P08648); assay: ELISA-like solid-phase binding assay, soluble integrin α5β1 vs coated fibronectin; parameters: purchased R&D
T5 sequence (P08648 42-995 limits assumed): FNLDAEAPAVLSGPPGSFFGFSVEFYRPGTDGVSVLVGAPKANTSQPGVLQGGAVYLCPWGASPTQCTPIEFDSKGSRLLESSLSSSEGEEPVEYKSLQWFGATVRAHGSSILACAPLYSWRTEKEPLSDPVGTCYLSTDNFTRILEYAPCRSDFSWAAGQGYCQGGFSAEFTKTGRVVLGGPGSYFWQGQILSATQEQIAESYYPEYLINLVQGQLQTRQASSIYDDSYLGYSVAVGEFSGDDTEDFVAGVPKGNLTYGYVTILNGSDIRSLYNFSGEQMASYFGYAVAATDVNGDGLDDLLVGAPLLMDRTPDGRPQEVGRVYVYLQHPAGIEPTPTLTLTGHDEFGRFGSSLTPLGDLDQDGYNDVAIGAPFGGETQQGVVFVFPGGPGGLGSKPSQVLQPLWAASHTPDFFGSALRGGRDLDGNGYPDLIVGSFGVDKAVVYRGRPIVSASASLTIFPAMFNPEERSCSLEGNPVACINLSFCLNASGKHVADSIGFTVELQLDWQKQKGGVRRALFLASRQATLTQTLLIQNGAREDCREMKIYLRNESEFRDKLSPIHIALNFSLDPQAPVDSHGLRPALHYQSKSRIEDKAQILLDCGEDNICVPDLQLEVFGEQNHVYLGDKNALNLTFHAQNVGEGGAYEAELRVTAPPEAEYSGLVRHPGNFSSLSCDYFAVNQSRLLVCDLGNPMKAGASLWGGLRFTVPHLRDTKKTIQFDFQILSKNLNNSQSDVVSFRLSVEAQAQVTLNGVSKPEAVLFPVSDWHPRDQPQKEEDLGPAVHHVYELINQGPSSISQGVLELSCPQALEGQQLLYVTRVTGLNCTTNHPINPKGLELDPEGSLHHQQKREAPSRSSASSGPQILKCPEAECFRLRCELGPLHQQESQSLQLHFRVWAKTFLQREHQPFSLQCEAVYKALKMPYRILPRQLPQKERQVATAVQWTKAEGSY
T5 sequence (P05556 21-728 limits assumed): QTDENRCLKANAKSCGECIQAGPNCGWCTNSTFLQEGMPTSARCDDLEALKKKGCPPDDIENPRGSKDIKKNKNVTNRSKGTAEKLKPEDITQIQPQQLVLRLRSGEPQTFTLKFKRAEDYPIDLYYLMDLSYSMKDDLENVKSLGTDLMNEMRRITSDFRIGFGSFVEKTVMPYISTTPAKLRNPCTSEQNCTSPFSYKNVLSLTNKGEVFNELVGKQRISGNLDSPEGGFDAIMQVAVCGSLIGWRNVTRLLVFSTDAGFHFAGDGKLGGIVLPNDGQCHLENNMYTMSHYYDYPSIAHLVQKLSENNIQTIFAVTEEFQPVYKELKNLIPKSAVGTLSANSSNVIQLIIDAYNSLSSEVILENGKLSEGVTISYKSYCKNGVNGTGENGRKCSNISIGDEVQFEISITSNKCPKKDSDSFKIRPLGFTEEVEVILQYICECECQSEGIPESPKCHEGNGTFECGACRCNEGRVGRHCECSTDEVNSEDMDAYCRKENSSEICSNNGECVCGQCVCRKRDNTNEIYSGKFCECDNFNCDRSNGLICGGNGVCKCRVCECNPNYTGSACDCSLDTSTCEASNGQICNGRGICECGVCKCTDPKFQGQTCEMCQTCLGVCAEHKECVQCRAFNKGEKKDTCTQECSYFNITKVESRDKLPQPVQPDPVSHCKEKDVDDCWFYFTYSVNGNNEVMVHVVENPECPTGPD

human αvβ6-Integrin = target: T6, human αvβ6-Integrin (Homo sapiens, UniProt P06756+P18564); assay: ELISA-like solid-phase binding assay, soluble integrin αvβ6 vs coated LAP (TGF-β); settings: for IC50: coated LAP, soluble integrin, referenced to internal standard
T6 construct: purchased R&D
T6 sequence (P06756 31-992 limits assumed): as the sequence (P06756 31-992 limits assumed) above
T6 sequence (P18564 22-707 limits assumed): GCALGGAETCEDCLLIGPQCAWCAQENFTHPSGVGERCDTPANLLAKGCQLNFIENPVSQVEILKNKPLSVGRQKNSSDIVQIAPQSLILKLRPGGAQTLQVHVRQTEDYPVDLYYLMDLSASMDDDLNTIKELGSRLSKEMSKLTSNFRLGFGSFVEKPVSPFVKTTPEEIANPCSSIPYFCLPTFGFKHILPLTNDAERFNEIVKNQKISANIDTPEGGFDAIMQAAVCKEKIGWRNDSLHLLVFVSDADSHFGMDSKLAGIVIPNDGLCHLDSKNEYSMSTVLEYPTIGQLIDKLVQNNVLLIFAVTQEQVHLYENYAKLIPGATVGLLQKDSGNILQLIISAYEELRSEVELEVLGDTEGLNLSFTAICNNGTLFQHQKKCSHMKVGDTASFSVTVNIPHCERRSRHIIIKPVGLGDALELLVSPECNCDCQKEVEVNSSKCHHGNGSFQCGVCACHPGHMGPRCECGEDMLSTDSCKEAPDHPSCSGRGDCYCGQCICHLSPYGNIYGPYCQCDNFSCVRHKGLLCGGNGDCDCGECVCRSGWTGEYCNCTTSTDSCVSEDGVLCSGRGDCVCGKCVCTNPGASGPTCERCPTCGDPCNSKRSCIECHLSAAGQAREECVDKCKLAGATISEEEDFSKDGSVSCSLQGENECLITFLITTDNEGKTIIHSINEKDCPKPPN

α5β1 integrin [3] = target: T5, α5β1 integrin; assay: Solid phase binding assay with surface-coated integrin and soluble fibronectin; settings: incubation with fibronectin, unpublished data
Procedure: Tests carried out in cell-free systems, use isolated extracellular domains of integrins in conjunction with ECM proteins, either extracted from human tissue or produced by recombinant methods. Most of these tests are based on competitive solid phase binding assays, in which one component is bound to the multi-well plate and in a subsequent step, soluble ligands are added, testing their capacity to block the binding to that component. Mainly two procedures are described in the literature, differing in the molecule used to coat the surfaces: the isolated integrin extracellular domains or the ECM protein. In the first case, the integrin is coated on the surface, followed by an incubation with a mixture of the native ECM protein and increasing concentrations of the ligand of interest. In an alternative test system, the natural ECM protein (vitronectin for αvβ3 and αvβ5, LAP (TGFβ) for αvβ6 and αvβ8, fibronectin for α5β1 and fibrinogen for αIIbβ3) is immobilized onto the surface, and the soluble integrin, together with a serial dilution of the inhibitory ligand, is added afterwards. The read-out in both procedures is usually done in an ELISA-like manner by using conjugated antibodies recognizing the integrin head groups. […] For a detailed description of the reference to the SI. […]

[4] = cited from earlier work
[5] = coated fibronectin, soluble integrin, referenced to internal standard, read-out: IC50 α5β1

Compound	IC50 (human αvβ8-Integrin) [nM]	IC50 [1] [nM]	IC50 (human αvβ3-integrin) [nM]	IC50 (human αvβ5-integrin) [nM]	IC50 (α5β1 integrin [2]; [5]) [nM]	IC50 (human αvβ6-Integrin)	further results
CC(C)C[C@H](NC(=O)[C@H](CO)NC(=O)[C@H](CC(=O)O)NC(=O)[C@H](CC(C)C)NC(=O)[C@H](CC(=O)O)NC(=O)[C@@H](NC(=O)[C@@H](N)CCCNC(=N)N)[C@@H](C)O)C(=O)N[C@@H](CCCNC(=N)N)C(=O)N[C@H](C(=O)O)[C@@H](C)O	320 ± 25	> 10000	6230 ± 540	> 10000	> 10000	–	–
CC(C)C[C@H](NC(=O)[C@H](CC(=O)O)NC(=O)CNC(=O)[C@H](CCCNC(=N)N)NC(=O)[C@H](CC(C)C)NC(=O)[C@H](CC(N)=O)NC(=O)[C@@H]1CCCN1C(=O)[C@@H](NC(=O)[C@H](C)NC(=O)[C@@H](N)CC(N)=O)C(C)C)C(=O)N[C@@H](CCC(N)=O)C(=O)N[C@H](C(=O)N[C@@H](CC(C)C)C(=O)N[C@@H](C)C(=O)N[C@@H](CCC(N)=O)C(=O)N[C@@H](CCCCN)C(=O)N[C@H](C(=O)N[C@@H](C)C(=O)N[C@@H](CCCNC(=N)N)C(=O)N[C@H](C(=O)O)[C@@H](C)O)C(C)C)C(C)C [A20FMDV2]	–	–	–	–	–	–	IC50 (α5β1 integrin [2]): > 10000 nM
CC(=O)N1CCC[C@H]1C(=O)N[C@@H](Cc1c[nH]cn1)C(=O)N[C@@H](CO)C(=O)N[C@@H](CS)C(=O)N[C@@H](CC(N)=O)C(N)=O [ATN161, Ac-PHSCN-NH2] (Ac-PHSCN-NH2)	> 10000	> 10000	> 10000	> 10000	4.2 ± 0.5	3130 ± 591 nM	–
CC(C)[C@H]1C(=O)N[C@@H](CCCNC(=N)N)C(=O)NCC(=O)N[C@@H](CC(=O)O)C(=O)N[C@H](Cc2ccccc2)C(=O)N1C [Cilengitide, c(RGDf(NMe)V)]	–	–	–	–	–	–	antagonistic activity towards coated α5β1 (α5β1 integrin [3]): low antagonistic activities; half-life in man [4]: about four; systemic metabolism ([4]; man): not metabolized systemically
N=C(N)NCCC[C@@H]1NC(=O)[C@@H]2CSSC[C@H](NC(=O)[C@H](CC(=O)O)NC(=O)CNC1=O)C(=O)N[C@@H](Cc1ccccc1)C(=O)N[C@H](C(=O)NCCOCCOCCOCCNC(=O)COCC(N)=O)CSCC(=O)N[C@@H](CCCCNC(=O)COCC(=O)NCCOCCOCCOCCOCCOCCNC(=O)CO/N=C/c1ccc(F)cc1)C(=O)N2 [Flucilatide] ({CH2CO}-K(X1)CRGDCFC-X2; disulfide 2-6; thioether N-8; N-terminus and C-terminus assumed)	–	–	–	–	–	–	fold change of αvβ3 IC50-value after functionalization (human αvβ3-integrin; versus targeting unit NC100717): 3 fold
N=C(N)c1ccc(N2CCN(C3CCN(CC(=O)O)CC3)CC2)cc1 [GR144053, 4-[4-[4-(aminoiminomethyl)phenyl]-1-piperazinyl]-1-piperidineacetic acid]	> 10000	18 ± 2.2	> 10000	> 10000	> 10000	> 10000 nM	–
N=C(N)NCCC[C@H](NC(=O)CN)C(=O)NCC(=O)N[C@@H](CC(=O)O)C(=O)N[C@@H](CC(N)=O)C(=O)N1CCC[C@H]1C(=O)O [GRGDNP] (H-GRGDNP-OH)	> 10000	> 10000	45 ± 12	506 ± 120	34 ± 3	> 10000 nM	–
NCCCC[C@H](NC(=O)[C@@H]1CCCN1C(=O)[C@H](CO)NC(=O)[C@H](CC(=O)O)NC(=O)CNC(=O)[C@H](CCCN=C(N)N)NC(=O)CN)C(=O)O [GRGDSPK]	> 10000	> 10000	12.2 ± 0.1	201 ± 32	66 ± 6	1030 ± 242 nM	–
N=C(N)NCCC[C@H](NC(=O)CN)C(=O)NCC(=O)N[C@@H](CC(=O)O)C(=O)N[C@@H](CO)C(=O)O [GRGDS]	–	–	–	–	77 ± 8	–	–
C[C@@H](O)[C@H](NC(=O)[C@H](CC(=O)O)NC(=O)CNC(=O)[C@H](CCCNC(=N)N)NC(=O)CN)C(=O)N1CCC[C@H]1C(=O)O [GRGDTP] (H-GRGDTP-OH)	> 10000	> 10000	28 ± 5	423 ± 65	84 ± 12	> 10000 nM	–
N=C(N)NCCC[C@H](NC(=O)CN)C(=O)NCC(=O)N[C@@H](CC(=O)O)C(=O)O [GRGD] (H-GRGD-OH)	> 10000	> 10000	55 ± 7	580 ± 23	137 ± 14	> 10000 nM	–
Cc1ccnc(NCCCC(=O)NCC(=O)NC(CC(=O)O)c2ccc(-c3cccc4ccccc34)cc2)c1 (centres unmarked) [Mol11*]	18.5 ± 4.3	> 10000	13.2 ± 0.5	530 ± 49	3020 ± 410	1.3 nM and 1.32 nM	–
N=C(N)NCCC[C@@H]1NC(=O)[C@@H]2CSSC[C@H](NC(=O)[C@H](CC(=O)O)NC(=O)CNC1=O)C(=O)N[C@@H](Cc1ccccc1)C(=O)N[C@H](C(=O)NCCOCCOCCOCCNC(=O)COCC(N)=O)CSCC(=O)N[C@@H](CCCCN)C(=O)N2 [NC100717] ({CH2CO}-KCRGDCFC-X2; disulfide 2-6; thioether N-8; N-terminus and C-terminus assumed)	> 10000	> 10000	1.1 ± 0.1	16.7 ± 2.1	820 ± 156	> 10000 nM	–
C[C@H](N)C(=O)N[C@H]1CSSC[C@@H](C(=O)NCC(=O)O)NC(=O)[C@H](Cc2ccccc2)NC(=O)[C@@H]2CSSC[C@H](NC(=O)[C@H](CC(=O)O)NC1=O)C(=O)N[C@@H](CCCNC(=N)N)C(=O)NCC(=O)N[C@@H](CC(=O)O)C(=O)N2 [RGD-4C] (H-ACDCRGDCFCG-OH; disulfide 2-10, 4-8)	> 10000	> 10000	8.3 ± 2.1	46 ± 11	244 ± 37	380 ± 44 nM	IC50 αvβ8 (human αvβ8-Integrin): no affinity; IC50 αIIbβ3 [1]: no affinity
NC(N)=NCCC[C@H](N)C(=O)NCC(=O)N[C@@H](CC(=O)O)C(=O)N[C@@H](CO)C(=O)O [RGDS]	> 10000	–	45 ± 5	433 ± 34	181 ± 23	> 10000 nM	–
N=C(N)NCCC[C@H](N)C(=O)NCC(=O)N[C@@H](CC(=O)O)C(=O)O [RGD]	> 10000	> 10000	89 ± 12	440 ± 65	–	> 10000 nM	–
CCCCS(=O)(=O)N[C@@H](Cc1ccc(OCCCCC2CCNCC2)cc1)C(=O)O [Tirofiban]	> 10000	–	> 10000	> 10000	> 10000	> 10000 nM	–
N=C(N)NCCC[C@@H]1NC(=O)[C@H](CS)NC(=O)[C@@H](Cc2ccccc2)NC(=O)[C@H](CC(=O)O)NC(=O)CNC1=O [c(RGDfC)] (cyclo(RGD[dF]C))	> 10000	> 10000	6.3 ± 0.5	433 ± 23	215 ± 55	121 ± 10 nM	–
N=C(N)NCCC[C@@H]1NC(=O)[C@H](CCCCNC(=O)CCOCCOCCOCCOCCOCCOCCNC(=O)CCS)NC(=O)[C@@H](Cc2ccccc2)NC(=O)[C@H](CC(=O)O)NC(=O)CNC1=O [c(RGDfK)-Peg-MPA]	> 10000	> 10000	15 ± 1.8	390 ± 53	201 ± 31	422 ± 44 nM	–
N=C(N)NCCC[C@@H]1NC(=O)[C@H](CCCCN)NC(=O)[C@@H](Cc2ccccc2)NC(=O)[C@H](CC(=O)O)NC(=O)CNC1=O [c(RGDfK)]	5200 ± 670	> 10000	–	340 ± 24	141 ± 15	–	–
N=C(N)NCCC[C@@H]1NC(=O)[C@H](CCCCN)NC(=O)[C@@H](Cc2ccc(O)cc2)NC(=O)[C@H](CC(=O)O)NC(=O)CNC1=O [c(RGDyK)]	> 10000	–	–	–	236 ± 45	–	–
N=C(N)NCCC[C@@H]1NC(=O)CNC(=O)C[C@@H](C(=O)O)NC(=O)[C@@H](c2ccccc2)NC(=O)[C@@H](CCCCNC(=O)COCCOCCNC(=O)CCS)NC1=O [c(phgisoDGRk)-Peg-MPA] (GR[dK]([AEEA-Mpa])[dPhg]D-OH; lactam N-5)	> 10000	> 10000	> 10000	> 10000	31 ± 3.4	52 ± 4.8 nM	fold change of αvβ6 IC50-value after functionalization (human αvβ6-Integrin; versus c(phgisoDGRk)): 2 fold; fold change of α5β1 IC50-value after functionalization (α5β1 integrin [2]; versus c(phgisoDGRk)): 2 fold
N=C(N)NCCC[C@@H]1NC(=O)CNC(=O)C[C@@H](C(=O)O)NC(=O)[C@@H](c2ccccc2)NC(=O)[C@@H](CCCCN)NC1=O [c(phgisoDGRk)] (GR[dK][dPhg]D-OH; lactam N-5)	77 ± 6	> 10000	> 10000	> 10000	9.43 ± 1.33	18 ± 2.5 nM	–
Echistatin	12.8 ± 2.5	0.9 ± 0.24	0.46 ± 0.14	1.4 ± 0.2	0.57 ± 0.19	–	–
